In patent publication US6458840B2, “Use of valproic acid analog for the treatment and prevention of migraine and affective illness” (American Biogenetic Sciences, Inc., priority 1998, dated 2002):
Where “and” joins values, the source holds several entries; their conditions need not be identical. Identical values can stand only once. Entries after “also recorded” stand apart in the source; their conditions may differ. One block for each compound: values may come before it.

Tests used:
[1] = system: amygdala-kindled seizures; experiment: Amygdala-kindling in fully kindled rats (anti-seizure effects); format: in vivo, rat; conditions: for afterdisch.dur.1 (ADD1) / afterdisch.dur.2 (ADD2) / afterdisch.thresh. (ADT) / seizure duration1 (SD1) / seizure duration2 (SD2) / seizure severity (SS): 15 min pretreatment, mean (X); for seizure severity (SS): Racine score; for increase of afterdischarge threshold: versus pre-drug control
Experimental: For implantation of stimulation and recording electrodes, rats were anesthetized with chloral hydrate (360 mg/kg i.p.) and received stereotaxic implantation (according to the surgery methods described in the atlas of Paxinos and Watson [1986]) of one bipolar electrode in the right basolateral amygdala. Coordinates for electrode implantation were AP-2.2 mm, L-4.8 mm, V-8.5 mm. All coordinates were measured from bregma. Skull screws served as the indifferent reference electrode. The electrode assembly was attached to the skull by dental acrylic cement. After a postoperative period of 2 weeks, constant current stimulations (500 μA, 1 ms, monophasic square-wave pulses, 50/s for 1 s) were delivered to the amygdala at intervals of 1/day until ten stage 5 seizures were elicited. The electrical susceptibility of the stimulated region (threshold for induction of afterdischarges) was recorded on the first day of the experiment (initial afterdischarge threshold) as well as after kindling acquisition (with an interval of at least 4 days after the tenth stage 5 seizure) using an ascending staircase procedure. The initial current intensity was 1 OμA, and the current intensity was increased in steps of about 20% of the previous current at intervals of 1 min until an afterdischarge of at least 3 s duration was elicited. […] In addition to afterdischarge threshold, the following parameters of kindled seizures were measured in fully-kindled rats after stimulation with the afterdischarge threshold current: seizure severity was classified according to Racine (1972): 1 -immobility, eye closure, twitching of vibrissae, sniffing, facial clonus; 2-head nodding associated with more severe facial clonus; 3-clonus of one forelimb; 4-rearing, often accompanied by bilateral forelimb clonus; 5-rearing with loss of balance and falling accompanied by generalized clonic seizures. Seizure duration 1 (SD 1) was the duration of limbic (stage 1-2) and/or motor seizures (stage 3-5). Seizure duration 2 (SD 2) included the time of limbic and/or motor seizures plus the adjacent time of immobility. Afterdischarge duration 1 (ADD 1) was the time of spikes in the EEG recorded from the site of stimulation with a frequency of at least 1 /s. Afterdischarge duration 2 (ADD 2) was the total time of spikes occurring in the EEG including those, which followed the ADD 1 with lower frequency and amplitude.
The anti-seizure effects of 2-propyl-4-hexynoic acid and valproate in fully kindled rats were determined in a group of 8-9 rats (no. 784, 785, 787, 788, 789, 790 [had to be taken out of the trial, because of loss of electrodes], 791, 792, 793) with reproducible stage 5 seizures.
Drugs were injected 15 min prior to stimulation intraperitoneally. Control experiments were always performed 2-3 days before each drug experiment. For control determinations, rats received i.p. injections of vehicle (saline) with the pretreatment time of the respective drug experiment. For all drug experiments, at least 4 days were interposed between 2 drug injections in order to avoid alterations in drug potency due to cumulation or tolerance.
The significance of differences between pre-drug control recordings and recordings after drug injection was calculated by the Wilcoxon signed rank test for paired replicates (SigmaStat for Windows, version 1.0).

[2] = Rectal body temperature; format: in vivo, rat; conditions: for BODY TEMP., day of exper., 13′ post appl.: mean (X)
Experimental: Female Wistar rats (Harlan-Winkelmann, Borchen, Germany) were obtained at an age of 11-12 weeks (body weight 180-200 g). Female rats were employed because they are known to eliminate drugs less rapidly than do males, which was thought to be an advantage for drug potency studies. Rats were kept separately in plastic cages at controlled temperature (23° C.) and humidity (about 50 %) with a 12-h light cycle beginning at 7 a.m. They received standard diet (Altromin; Lage, F.R.G.), tap water and libitum. All drug injections were done in the afternoon at an ambient temperature of 23-25° C. The regular protocol started by taking the rats out of their individual cage, weighing them and joining them together on a table with six open plastic cages for better behavioral observations. Therefore animals were able to move from one cage to another and either to have social contact or to avoid it. After a short adaptation time of approximately 15 minutes, rectal body temperatures were recorded followed by drug or vehicle application.
Tests included open field observations, rotarod test and body temperature. Tests were always performed in the same manner in control and drug experiments at two different times, just before application of drug or vehicle and 13 minutes after application.
In addition to these quantitative estimations of neurological deficit, behavioral alterations observed after administration of 2-propyl-4-hexynoic acid and valproate noted in the cage and by placing the animals in an open field of 90-100 cm diameter. Muscle tone was estimated by palpation of the abdomen. The extent of deficits in behavior after administration of the compounds was determined by a rating system (Loscher et al. 1987). In short, animals were taken out of the cage, placed in an open field, observed for about 1 minute and rated separately for ataxia, abducted hindlimbs, reduced righting, flat body posture, circling, Straub tail, piloerection, hypolocomotion and hyperlocomotion (abdominal muscle tone was evaluated by palpation at the end of the period of observation). All other parameters except ataxia were scored from 0 to 3: 0-absent; 1-equivocal; 2-present; 3- intense. For ataxia (06): 1 -slight ataxia in hind-legs (tottering of the hind quarters); 2-more pronounced ataxia with dragging of hind legs; 3-further increase of ataxia and more pronounced dragging of hind legs; 4-marked ataxia, animals lose balance during forward locomotion; 5- very marked ataxia with frequent loss of balance during forward locomotion; 6-permanent loss of righting reflexes, but animal still attempts to move forward. Rectal body temperature was measured by an electronic thermometer. Body weight of the animals was recorded once daily before drug injection. Significance of differences in behavior between pre-drug and post-drug data determined in the same group of animals was calculated by the Wilcoxon signed rank test for paired replicates and for body temperature by Student's paired t-test (SigmaStat for Windows, version 1.0). Differences in body temperature were always compared only within the experimental day with the pre-drug time as control to one post-drug time.

[3] = system: PTZ induced seizures; conditions: literature / earlier application; cited from earlier work
[4] = 100 mg/kg i.p., listed as valproate
[5] = 200 mg/kg i.p., listed as valproate

- BODY TEMP., day of exper., 13′ post appl. ([2]; 50 mg/kg i.p.): 38.82 °C
- BODY TEMP., day of exper., 13′ post appl. ([2]; 75 mg/kg i.p.): 38.55 °C
- alterations in body-temperature, in words ([2]; 100 mg/kg i.p.): No alterations
- BODY TEMP., day of exper., 13′ post appl. ([2]; 100 mg/kg i.p.): 38.97 °C
- BODY TEMP., day of exper., 13′ post appl. ([2]; 200 mg/kg i.p.): 39.18 °C
- BODY TEMP., day of exper., 13′ post appl. [2, 5]: 39.2 °C
SMILES: CCCC(CCC)C(=O)O [Valproate, valproic acid]
- afterdisch.dur.1 (ADD1) ([1]; 50 mg/kg i.p.): 76.67 s
- afterdisch.dur.2 (ADD2) ([1]; 50 mg/kg i.p.): 76.67 s
- afterdisch.thresh. (ADT) ([1]; 50 mg/kg i.p.): 60.44 μA
- seizure duration1 (SD1) ([1]; 50 mg/kg i.p.): 72.22 s
- seizure duration2 (SD2) ([1]; 50 mg/kg i.p.): 231.67 s
- seizure severity (SS) ([1]; 50 mg/kg i.p.): 4.33 score
- increase of afterdischarge threshold ([1]; 50 mg/kg i.p.): 109%
- afterdisch.dur.1 (ADD1) ([1]; 75 mg/kg i.p.): 67.25 s
- afterdisch.dur.2 (ADD2) ([1]; 75 mg/kg i.p.): 67.25 s
- afterdisch.thresh. (ADT) ([1]; 75 mg/kg i.p.): 73.13 μA
- seizure duration1 (SD1) ([1]; 75 mg/kg i.p.): 54.00 s
- seizure duration2 (SD2) ([1]; 75 mg/kg i.p.): 250.75 s
- seizure severity (SS) ([1]; 75 mg/kg i.p.): 4.13 score
- increase of afterdischarge threshold ([1]; 75 mg/kg i.p.): 77%
- afterdisch.dur.1 (ADD1) ([1]; 100 mg/kg i.p.): 20.00 s
- afterdisch.dur.2 (ADD2) ([1]; 100 mg/kg i.p.): 20.00 s
- afterdisch.thresh. (ADT) ([1]; 100 mg/kg i.p.): 151.67 μA
- seizure duration1 (SD1) ([1]; 100 mg/kg i.p.): 18.22 s
- seizure duration2 (SD2) ([1]; 100 mg/kg i.p.): 43.44 s
- seizure severity (SS) ([1]; 100 mg/kg i.p.): 3.00 score
- seizure severity (SS) [1, 4]: 3.0 score
- afterdisch.dur.2 (ADD2) [1, 4]: 20 s
- seizure duration1 (SD1) [1, 4]: 18 s
- increase of afterdischarge threshold ([1]; 100 mg/kg i.p.): 319%
- afterdisch.dur.1 (ADD1) ([1]; 200 mg/kg i.p.): 8.75 s
- afterdisch.dur.2 (ADD2) ([1]; 200 mg/kg i.p.): 8.75 s
- afterdisch.thresh. (ADT) ([1]; 200 mg/kg i.p.): 496.25 μA
- seizure duration1 (SD1) ([1]; 200 mg/kg i.p.): 8.75 s
- seizure duration2 (SD2) ([1]; 200 mg/kg i.p.): 8.75 s
- seizure severity (SS) ([1]; 200 mg/kg i.p.): 1.63 score
- seizure severity (SS) [1, 5]: 1.6 score
- afterdisch.dur.2 (ADD2) [1, 5]: 9 s
- seizure duration1 (SD1) [1, 5]: 9 s
- increase of afterdischarge threshold ([1]; 200 mg/kg i.p.): 970%
- effects against amygdala-kindled seizures, in words ([1]; all doses tested: 50, 75, 100, 200 mg/kg i.p.): significant effects against amygdala-kindled seizures

SMILES: CC#CCC(CCC)C(=O)O (stereo not shown) [2-propyl-4-hexynoic acid, 2-n-propyl-4-hexynoic acid]
- effects against amygdala-kindled seizures, in words ([1]; 50 mg/kg i.p.): no significant effects
- afterdisch.dur.1 (ADD1) ([1]; 50 mg/kg i.p.): 93.11 s
- afterdisch.dur.2 (ADD2) ([1]; 50 mg/kg i.p.): 93.11 s
- afterdisch.thresh. (ADT) ([1]; 50 mg/kg i.p.): 37.33 μA
- seizure duration1 (SD1) ([1]; 50 mg/kg i.p.): 78.44 s
- seizure duration2 (SD2) ([1]; 50 mg/kg i.p.): 234.33 s
- seizure severity (SS) ([1]; 50 mg/kg i.p.): 4.89 score
- afterdisch.dur.1 (ADD1) ([1]; 75 mg/kg i.p.): 16.25 s
- afterdisch.dur.2 (ADD2) ([1]; 75 mg/kg i.p.): 16 s and 16.25 s
- afterdisch.thresh. (ADT) ([1]; 75 mg/kg i.p.): 88.50 μA
- seizure duration1 (SD1) ([1]; 75 mg/kg i.p.): 16 s and 16.25 s
- seizure duration2 (SD2) ([1]; 75 mg/kg i.p.): 16.25 s
- seizure severity (SS) ([1]; 75 mg/kg i.p.): 2.3 score and 2.25 score
- increase of afterdischarge threshold ([1]; 75 mg/kg i.p.): 109%
- seizure duration1 (SD1) ([1]; 100 mg/kg i.p.): 47 s
- seizure severity (SS) ([1]; 100 mg/kg i.p.): 3.6 score
- increase of afterdischarge threshold ([1]; 100 mg/kg i.p.): 160%
- afterdisch.dur.2 (ADD2) ([1]; 200 mg/kg i.p.): 24 s
- seizure duration1 (SD1) ([1]; 200 mg/kg i.p.): 19 s
- seizure severity (SS) ([1]; 200 mg/kg i.p.): 1.8 score
- increase of afterdischarge threshold ([1]; 200 mg/kg i.p.): 209%
- afterdisch.thresh. (ADT; μA) ([1]; 200 mg/kg, mean (X) of 8 kindled rats, control mean 57.88): 178.75 μA
- seizure severity (SS; score) ([1]; 200 mg/kg, mean of 8 rats, control mean 4.63): 1.75 score
- seizure duration1 (SD1; sec) ([1]; 200 mg/kg, mean of 8 rats, control mean 61.63): 19.25 s
- afterdisch.dur.1 (ADD1;sec) ([1]; 200 mg/kg, mean of 8 rats, control mean 77.25): 23.50 s
- afterdisch.dur.2 (ADD2; sec) ([1]; 200 mg/kg, mean of 8 rats, control mean 88.13): 23.50 s
- seizure duration2 (SD2; sec) ([1]; 200 mg/kg, mean of 8 rats, control mean 197.88): 36.38 s
- BODY TEMP., day of exper., 13′ post appl. ([2]; 50 mg/kg i.p.): 38.48 °C
- BODY TEMP., day of exper., 13′ post appl. ([2]; 75 mg/kg i.p.): 38.49 °C
- BODY TEMP. (° C.) day of exper. 13′ post appl. ([2]; 200 mg/kg, 13′ post appl., mean of 8 rats, ante appl. 38.68): 37.94 °C
- body-temperatures, in words ([2]; doses 50, 75, 100, 200 mg/kg i.p.): maintained within the physiological range
- antiepileptic effect in PTZ test, in words [3]: effective antiepileptic with a longer duration of activity and greatly reduced sedative and teratogenic effects compared to valproic acid; also recorded: improved antiepileptic compared to valproic acid
